Read-outs that look alike come from different tables or passages of the source.
Legend:
[1] = target: T1, unphosphorylated VEGF-R2Δ50 (FLVK) (Homo sapiens, UniProt P35968, DEL940-989/E990V); test: VEGF-R2 coupled spectrophotometric assay, unphosphorylated construct (FLVK); type: biochemical;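 note: Baculovirus-expressed cytosolic kinase domain, ADP formation linked via pyruvate kinase and lactate dehydrogenase to NADH oxidation, read as falling absorbance at 340 nm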
T1 construct: VEGF-R2Δ50 contains residues 806-939 and 990-1171; made in house; host or cells: baculovirus/insect cells

LCK tyrosine kinase = target: T2, LCK tyrosine kinase (Homo sapiens, UniProt P06239, C224D/P223M); test: LCK spectrophotometric assay; type: biochemical; details: for Ki: read-out: LCK-P Ki;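 for all read-outs here: recombinant LCK kinase activity on poly(E4Y1), ADP formation coupled through PK/LDH to NADH oxidation, followed as absorbance loss at 340 nm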
T2 construct: starting from amino acid residue 223 to the end of the protein at residue 509; made in house; host or cells: insect cells

FL-CHK-1 = target: T3, FL-CHK-1 (Homo sapiens, UniProt O14757); test: CHK-1 coupled spectrophotometric assay (Syntide-2); type: biochemical; details: @ 1 μM; read-out: CHK-1 percent inhibition
T3 construct: C-terminally His-tagged full-length human CHK-1 (FL-CHK-1); made in house; host or cells: baculovirus/insect cells
T3 sequence (O14757 1-476): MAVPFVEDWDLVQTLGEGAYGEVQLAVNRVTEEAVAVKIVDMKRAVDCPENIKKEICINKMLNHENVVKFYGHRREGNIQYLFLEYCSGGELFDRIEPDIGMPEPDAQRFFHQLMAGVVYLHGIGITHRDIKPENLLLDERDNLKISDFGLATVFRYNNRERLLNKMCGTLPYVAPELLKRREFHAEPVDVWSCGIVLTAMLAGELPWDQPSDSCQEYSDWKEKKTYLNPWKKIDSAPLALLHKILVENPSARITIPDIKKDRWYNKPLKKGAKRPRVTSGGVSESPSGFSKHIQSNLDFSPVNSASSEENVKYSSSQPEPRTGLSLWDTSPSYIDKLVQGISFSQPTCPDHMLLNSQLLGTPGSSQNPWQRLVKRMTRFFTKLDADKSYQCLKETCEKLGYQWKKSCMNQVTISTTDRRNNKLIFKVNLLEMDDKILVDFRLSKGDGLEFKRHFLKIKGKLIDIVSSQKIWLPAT
Description: C-terminally His-tagged full-length human CHK-1 (FL-CHK-1) was expressed using the baculovirus/insect cell system. It contains 6 histidine residues (6×His-tag) at the C-terminus of the 476 amino acid human CHK-1. The protein was purified by conventional chromatographic techniques.
The production of ADP from ATP that accompanies phosphoryl transfer to the synthetic substrate peptide Syntide-2 ([…]) was coupled to oxidation of NADH using phosphoenolpyruvate (PEP) through the actions of pyruvate kinase (PK) and lactic dehydrogenase (LDH). The oxidation of NADH was monitored by following the decrease of absorbance at 340 nm (ε340=6.22 cm−1 mM^−1) using a HP8452 spectrophotometer. Typical reaction solutions contained: […]; 0.15 mM NADH; 28 units of LDH/ml; 16 units of PK/ml; 3 mM DTT; 0.125 mM Syntide-2; 0.15 mM ATP; 25 mM MgCl2 in 50 mM TRIS, pH 7.5; and 400 mM NaCl. Assays were initiated with 10 nM of FL-CHK-1. Ki values were determined by measuring initial enzyme activity in the presence of varying concentrations of test compounds. The data were analyzed using Enzyme Kinetic and Kaleidagraph software.

[2] = test system: human umbilical vein endothelial cells (HUVEC); test: HUVEC proliferation assay (VEGF-stimulated, MTT); type: cell-based; details: Homo sapiens, HUVEC
How it was run: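 Exponentially growing HUVEC (passage 3-4) were serum-starved 24 h in F12K + 1% FBS, given test compound (final DMSO 0.1%), then stimulated 1 h later with VEGF at 6 ng/ml final. Proliferation read after 72 h by 4 h MTT dye reduction, absorbance at 595.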

[3] = with albumin, read-out: Huvec + Albumin IC50

T1 sequence (P35968 with tags, fused parts or gaps DEL940-989/E990V limits assumed): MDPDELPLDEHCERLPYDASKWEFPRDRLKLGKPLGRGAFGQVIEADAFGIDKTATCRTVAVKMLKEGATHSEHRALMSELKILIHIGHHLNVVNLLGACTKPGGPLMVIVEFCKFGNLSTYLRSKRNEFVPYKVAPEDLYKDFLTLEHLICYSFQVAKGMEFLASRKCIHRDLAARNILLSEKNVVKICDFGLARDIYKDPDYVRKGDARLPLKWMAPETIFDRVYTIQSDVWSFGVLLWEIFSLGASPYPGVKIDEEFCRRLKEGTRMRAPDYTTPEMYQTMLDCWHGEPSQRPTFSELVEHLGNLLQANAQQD
T2 sequence (P06239 223-509 P223M/C224D): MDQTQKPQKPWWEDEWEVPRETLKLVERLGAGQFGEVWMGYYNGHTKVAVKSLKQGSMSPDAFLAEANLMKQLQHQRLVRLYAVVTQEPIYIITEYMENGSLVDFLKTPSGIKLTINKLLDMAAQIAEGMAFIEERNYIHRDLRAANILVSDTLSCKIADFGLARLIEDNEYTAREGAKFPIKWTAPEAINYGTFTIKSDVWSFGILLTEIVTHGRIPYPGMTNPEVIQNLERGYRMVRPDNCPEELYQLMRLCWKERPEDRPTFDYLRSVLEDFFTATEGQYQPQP

Row | Ki [1] | Ki (LCK tyrosine kinase) | inhibition at 1 µM (FL-CHK-1) | inhibition at 5 µM (LCK tyrosine kinase; @ 5 μM, read-out: LCK-P percent inhibition) | SMILES | IC50 ([2]; read-out: HUVEC IC50) | IC50 [2, 3]
1 | 0.23 nM | 57.7 nM | 8% |  | Cc1cc(NC(=O)c2ccc(F)c(OCc3cncc4ccccc34)c2)ccc1C(C)C [Example K-10, N-(4-Isopropyl-3-methyl-phenyl)-4-fluoro-3-(Isoquinolin-4-yl)methoxy-benzamide] | 12 nM | 
2 | 1.4 nM |  |  | 85% | Cc1ccc2cc(NC(=O)c3cccc(SCc4cc(Nc5ccccc5)n[nH]4)c3)ccc2n1 [Example E-1, N-(2-methyl-quinolin-6-yl)-3-[{5-(phenylamino)-2-H-pyrazol-3-yl}methylsulfanyl]benzamide] | 170 nM | > 1000 nM
3 | 0.11 nM | 2.5 nM | 7% |  | O=C(Nc1ccc(N2CCCC2)c(C(F)(F)F)c1)c1cccc(CCc2cc(Nc3cccnc3)n[nH]2)c1 [Example G-11] | 4.4 nM | 64 nM
4 | 1.3 nM | 160 nM | 10% |  | CC(=O)Nc1ccc(COc2cccc(C(=O)Nc3ccc4nc(C)ccc4c3)c2)cn1 [Example N-1, 3-(6-Acetylaminopyridin-3-yl)methoxy-N-(2-methyl-quinolin-6-yl)-benzamide] | 38 nM | > 1000 nM

From patent US6635641B2 (Agouron Pharmaceuticals, Inc., priority 2000, dated 2003)
